# pIC50: −log10 of the molar value.
# Test system: KRAS PDC tumor spheroids (HUVEC+MSC), viability
# Assay: Anticancer human tumor 254851-301-R-J1-PDC patient-derived colon carcinoma cell line growth inhibition [KRAS2]
# Conditions: for pIC50: curve of first compound; for viability, T/C: stronger effect = lower value
# Method in brief: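 Combination screen of spheroid viability in tumor-cell co-cultures with endothelial (HUVEC) and mesenchymal stem cell stroma. Each agent was tested in half-log dilutions, topping at clinical Cmax or at 10 microM without a known Cmax.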
# [1] = second compound 0.1 µM, first compound 0.01 µM
# [2] = second compound 0.1 µM, first compound 0.0316 µM
# [3] = second compound 0.1 µM, first compound 0.1 µM
# [4] = second compound 0.1 µM, first compound 0.316 µM
# [5] = second compound 0.1 µM, first compound 1 µM
# [6] = second compound 0.1 µM, first compound 3.16 µM
# [7] = second compound 0.316 µM, first compound 0.01 µM
# [8] = second compound 0.316 µM, first compound 0.0316 µM
# [9] = second compound 0.316 µM, first compound 0.1 µM
# [10] = second compound 0.316 µM, first compound 0.316 µM
# [11] = second compound 0.316 µM, first compound 1 µM
# [12] = second compound 0.316 µM, first compound 3.16 µM
# [13] = second compound 1 µM, first compound 0.01 µM
# [14] = second compound 1 µM, first compound 0.0316 µM
# [15] = second compound 1 µM, first compound 0.1 µM
# [16] = second compound 1 µM, first compound 0.316 µM
# [17] = second compound 1 µM, first compound 1 µM
# [18] = second compound 1 µM, first compound 3.16 µM
# [19] = second compound 3.16 µM, first compound 0.01 µM
# [20] = second compound 3.16 µM, first compound 0.0316 µM
# [21] = second compound 3.16 µM, first compound 0.1 µM
# [22] = second compound 3.16 µM, first compound 0.316 µM
# [23] = second compound 3.16 µM, first compound 1 µM
# [24] = second compound 3.16 µM, first compound 3.16 µM
# [25] = second compound 10 µM, first compound 0.01 µM
# [26] = second compound 10 µM, first compound 0.0316 µM
# [27] = second compound 10 µM, first compound 0.1 µM
# [28] = second compound 10 µM, first compound 0.316 µM
# [29] = second compound 10 µM, first compound 1 µM
# [30] = second compound 10 µM, first compound 3.16 µM
# 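Further: spheroids exposed to compounds for seven days before readout.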
# 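Wherever viability, T/C is given: 100% = DMSO vehicle control luminescence of the spheroids.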
SMILES,pIC50 (second compound 0.1 µM),pIC50 (second compound 0.316 µM),pIC50 (second compound 1 µM),pIC50 (second compound 3.16 µM),pIC50 (second compound 10 µM),"viability, T/C [1]","viability, T/C [2]","viability, T/C [3]","viability, T/C [4]","viability, T/C [5]","viability, T/C [6]","viability, T/C [7]","viability, T/C [8]","viability, T/C [9]","viability, T/C [14]","viability, T/C [15]","viability, T/C [20]","viability, T/C [21]","viability, T/C [26]","viability, T/C [27]",also measured
CC(=O)OC12COC1CC(O)C1(C)C(=O)C(O)C3=C(C)C(OC(=O)C(O)C(NC(=O)OC(C)(C)C)c4ccccc4)CC(O)(C(OC(=O)c4ccccc4)C21)C3(C)C (stereo not given) + CNCc1ccccc1-c1csc(C(C)Nc2nc(C)nc3cc(OC)c(OC)cc23)c1,6.75,6.90,6.74,7.64,> 8.00,101%,86.3%,62.6%,37.7%,26.1%,25.3%,90%,79.9%,55.7%,80.5%,61.5%,38.9%,9.76%,0.14%,1.91%,"viability, T/C [10]: 30.4%; viability, T/C [11]: 25.5%; viability, T/C [12]: 25.4%; viability, T/C [13]: 81.3%; viability, T/C [16]: 39.8%; viability, T/C [17]: 25.3%; viability, T/C [18]: 24%; viability, T/C [19]: 77%; viability, T/C [22]: 13.6%; viability, T/C [23]: 0.92%; viability, T/C [24]: 23.3%; viability, T/C [25]: 1.07%; viability, T/C [28]: 0.55%; viability, T/C [29]: 24.2%; viability, T/C [30]: 0.21%"
CN(C)C/C=C/C(=O)Nc1cc2c(Nc3ccc(F)c(Cl)c3)ncnc2cc1O[C@H]1CCOC1 + CNCc1ccccc1-c1csc(C(C)Nc2nc(C)nc3cc(OC)c(OC)cc23)c1,< 7.00,< 7.00,< 7.00,< 7.00,> 9.50,94.7%,93.1%,72.8%,–,–,–,87.9%,82.8%,72.3%,75.5%,79.9%,73.8%,62.2%,0.17%,0.21%,"viability, T/C (second compound 0.1 µM, first compound 0.000316 µM): 99.9%; viability, T/C (second compound 0.1 µM, first compound 0.001 µM): 105%; viability, T/C (second compound 0.1 µM, first compound 0.00316 µM): 96.4%; viability, T/C (second compound 0.316 µM, first compound 0.000316 µM): 104%; viability, T/C (second compound 0.316 µM, first compound 0.001 µM): 98.3%; viability, T/C (second compound 0.316 µM, first compound 0.00316 µM): 90.4%; viability, T/C (second compound 1 µM, first compound 0.000316 µM): 97.1%; viability, T/C (second compound 1 µM, first compound 0.001 µM): 89.2%; viability, T/C (second compound 1 µM, first compound 0.00316 µM): 84.6%; viability, T/C [13]: 82%; viability, T/C (second compound 3.16 µM, first compound 0.000316 µM): 84%; viability, T/C (second compound 3.16 µM, first compound 0.001 µM): 82.1%; viability, T/C (second compound 3.16 µM, first compound 0.00316 µM): 81.8%; viability, T/C [19]: 75.1%; viability, T/C (second compound 10 µM, first compound 0.000316 µM): 0.17%; viability, T/C (second compound 10 µM, first compound 0.001 µM): 0.18%; viability, T/C (second compound 10 µM, first compound 0.00316 µM): 0.18%; viability, T/C [25]: 0.16%"
O=C(c1cc(Cc2n[nH]c(=O)c3ccccc23)ccc1F)N1CCN(C(=O)C2CC2)CC1 + CNCc1ccccc1-c1csc(C(C)Nc2nc(C)nc3cc(OC)c(OC)cc23)c1,< 5.00,< 5.00,< 5.00,< 5.00,> 7.50,–,101%,109%,104%,108%,113%,–,107%,108%,116%,109%,79.6%,97.1%,0.19%,0.29%,"viability, T/C (second compound 0.1 µM, first compound 10 µM): 105%; viability, T/C [10]: 107%; viability, T/C [11]: 109%; viability, T/C [12]: 104%; viability, T/C (second compound 0.316 µM, first compound 10 µM): 105%; viability, T/C [16]: 103%; viability, T/C [17]: 110%; viability, T/C [18]: 105%; viability, T/C (second compound 1 µM, first compound 10 µM): 103%; viability, T/C [22]: 82.4%; viability, T/C [23]: 59.3%; viability, T/C [24]: 82.3%; viability, T/C (second compound 3.16 µM, first compound 10 µM): 71.6%; viability, T/C [28]: 0.18%; viability, T/C [29]: 0.17%; viability, T/C [30]: 0.17%; viability, T/C (second compound 10 µM, first compound 10 µM): 0.22%"

# — PubChem BioAssay AID1963868 (Molecular Pharmacology Branch, DTP, NCI, 2024)
